For 3 compounds, MIC results are on record in DBAASP.

The structures appear in SMILES notation. ≈ marks a conversion by molar mass, not a printed value. Where “and” joins values, the source holds several entries; their conditions need not be identical. Equal values may be shown once.

Among the test systems are Escherichia coli; Shigella dysenteriae; Staphylococcus aureus; Streptococcus agalactiae; Enterococcus faecium; Candida albicans; Escherichia coli ML-35; Serratia marcescens; Cryptococcus neoformans; Escherichia coli D21; Bacillus megaterium Bm11.
Holding throughout (test): ≥ marks a high value that may be exact or a test limit, other limits are often not marked, values filed in µg/mL are converted to µM
Assay [1] concerns Escherichia coli ATCC 25629.
Assay [2] deals with Shigella dysenteriae ATCC 2932.
Assay [3] concerns Candida albicans ATCC 3007.
In assay [4] the test system is Staphylococcus aureus ATCC 2576.
The test system of assay [5] is Candida albicans ATCC 90028.
Assay [6] deals with Staphylococcus aureus NCTC 8325.
Assay [7] relates to Acinetobacter baumannii I NM8.
Assay [8] has as its system Escherichia coli ATCC 25726.
For assay [9], the system named is Klebsiella pneumoniae ATCC 700603.
In assay [10] the test system is Staphylococcus aureus ATCC 25923.
Assay [11] concerns Escherichia coli ATCC 25922.
Assay [12] deals with Staphylococcus aureus Cowan 1.
Assay [13] concerns Pseudomonas aeruginosa KCTC 1637.
In assay [14] the test system is Escherichia coli KCTC 1682.
Assay [15] relates to Escherichia coli O18:K1:H7 Bort.
Assay [16] concerns Salmonella typhimurium KCTC 1926.
Assay [17] concerns Staphylococcus aureus KCTC 1621.
In assay [18] the test system is Pseudomonas aeruginosa ATCC 27853.
Assay [19] deals with Bacillus subtilis KCTC 3068.
Assay [20] has as its system Salmonella enterica subsp. enterica serovar Typhimurium ATCC 14028.
The subject of assay [21] is Staphylococcus epidermidis ATCC 12228.
Assay [22] deals with Staphylococcus epidermidis KCTC 1917.
Assay [23] relates to Serratia marcescens ATCC 8100.

In general, MIC refers to the smallest concentration in the dilution series that meets the test's criterion for growth inhibition. A higher MIC goes with a need for much substance. On to `CSCC[C@H](NC(=O)[C@H](CCCCN)NC(=O)[C@@H]1CCCN1C(=O)[C@H](CC(C)C)NC(=O)[C@@H](N)Cc1ccccc1)C(=O)N[C@@H](CO)C(=O)N[C@H](C(=O)N[C@@H](CCCCN)C(=O)N[C@@H](CC(C)C)C(=O)N[C@@H](CCCN=C(N)N)C(=O)N[C@H](C(=O)N1CCC[C@H]1C(=O)N[C@@H](Cc1ccc(O)cc1)C(=O)N[C@@H](CCCN=C(N)N)C(=O)N[C@@H](CCCN=C(N)N)C(=O)NCC(=O)N[C@H](C(=O)N[C@@H](CCCCN)C(=O)N[C@@H](CC(=O)O)C(=O)N[C@@H](Cc1ccc(O)cc1)C(=O)N[C@@H](Cc1cnc[nH]1)C(=O)O)[C@@H](C)O)C(C)C)[C@@H](C)O` [FLPKMSTKLRVPYRRGTKDYH], for which the MIC amounted to 4.82 µM (≈ 12.5 µg/mL) in assay [1]; 2.89 µM (≈ 7.5 µg/mL) in [2]; 5.78 µM (≈ 15 µg/mL) with Escherichia coli; 5.78 µM (≈ 15 µg/mL) in assay [3]; 0.463 µM (≈ 1.2 µg/mL) in assay [4]; 2.89 µM (≈ 7.5 µg/mL) in the assay with Shigella dysenteriae. In addition, the MIC with Staphylococcus aureus came out at 1.93 µM (≈ 5 µg/mL).
For `CC[C@H](C)[C@H](NC(=O)[C@@H](NC(=O)[C@H](C)NC(=O)[C@H](CCCCN)NC(=O)[C@H](C)NC(=O)[C@@H](NC(=O)[C@H](CCCCN)NC(=O)CNC(=O)[C@H](CC(C)C)NC(=O)[C@H](C)NC(=O)[C@@H](NC(=O)CNC(=O)[C@H](C)NC(=O)[C@H](CCCCN)NC(=O)[C@@H](NC(=O)[C@H](C)NC(=O)[C@H](CCSC)NC(=O)CN)[C@@H](C)O)[C@@H](C)O)C(C)C)C(C)C)C(=O)NCC(=O)N[C@@H](C)C(=O)N[C@@H](C)C(=O)N[C@@H](CC(C)C)C(N)=O` [GMATKAGTALGKVAKAVIGAAL], the MIC in [5] is no less than 100 µM; in assay [6] it was no less than 100 µM; in assay [7], 25 µM (≈ 50 µg/mL); in assay [8] it was no less than 100 µM; in assay [9] it was greater than 50 µM; in assay [10], 160 µM and 100 µM. The compound also registered an MIC in assay [11] greater than 100 µM.
For the compound `CC[C@H](C)[C@H](NC(=O)[C@@H](NC(=O)[C@@H]1CCCN1C(=O)[C@H](CO)NC(=O)[C@H](CC(C)C)NC(=O)[C@H](CCCCN)NC(=O)[C@H](CCCCN)NC(=O)[C@H](Cc1ccccc1)NC(=O)[C@H](CC(C)C)NC(=O)[C@H](CCCCN)NC(=O)[C@H](CCCCN)NC(=O)[C@H](Cc1ccccc1)NC(=O)[C@H](CCCCN)NC(=O)[C@H](CCCCN)NC(=O)[C@H](CCCN=C(N)N)NC(=O)[C@H](Cc1ccccc1)NC(=O)[C@H](CCCN=C(N)N)NC(=O)[C@H](CCCCN)NC(=O)[C@H](Cc1ccccc1)NC(=O)[C@H](CCCN=C(N)N)NC(=O)CN)C(C)C)C(=O)N1CCC[C@H]1C(=O)N[C@@H](CC(C)C)C(=O)N[C@@H](CC(C)C)C(=O)N[C@@H](Cc1cnc[nH]1)C(=O)N[C@@H](CC(C)C)C(=O)NCC(N)=O` [GRFKRFRKKFKKLFKKLSPVIPLLHLG], the MIC came out at 2 µM (≈ 6.56 µg/mL) in assay [12]; 2 µM (≈ 6.56 µg/mL) in assay [13]; 2.83 µM (≈ 9.28 µg/mL) against Streptococcus agalactiae; 4 µM (≈ 13.1 µg/mL) in [14]; 5.66 µM (≈ 18.6 µg/mL) against Enterococcus faecium; 8 µM (≈ 26.3 µg/mL) in the assay with Candida albicans. Besides, the MIC in [15] was 0.5 µM (≈ 1.64 µg/mL); in the assay on Escherichia coli ML-35, 1 µM (≈ 3.28 µg/mL); in [16] it was 1 µM (≈ 3.28 µg/mL); in [17], 4 µM (≈ 13.1 µg/mL); in assay [18], 1 µM (≈ 3.28 µg/mL); in assay [10], 2 µM (≈ 6.56 µg/mL). Also, the MIC in assay [19] was 2 µM (≈ 6.56 µg/mL); in assay [20] it was 1 µM (≈ 3.28 µg/mL); in assay [21], 1 µM (≈ 3.28 µg/mL); in the assay with Serratia marcescens, 2.83 µM (≈ 9.28 µg/mL); in [22] it was 2 µM (≈ 6.56 µg/mL); against Cryptococcus neoformans it was 4 µM (≈ 13.1 µg/mL). In addition, the MIC worked out at 4 µM (≈ 13.1 µg/mL) in the assay on Staphylococcus aureus; 2 µM (≈ 6.56 µg/mL) in assay [23]; 0.25 µM (≈ 0.821 µg/mL) in the assay with Escherichia coli D21; 1 µM (≈ 3.28 µg/mL) in assay [11]; 2 µM (≈ 6.56 µg/mL) against Bacillus megaterium Bm11.
